Data as given in patent publication US4269831A, “Topical dermatological method of use of an androstenopyrazole” (priority 1979, dated 1981).

What was measured:
[1] = test system: flank organ of mature male Syrian golden hamsters; experiment: Topical comparison in mature male hamsters, right flank organ treated, left flank organ vehicle (Tables II, III); assay type: in vivo; settings: n=7; for Flank organ Diameter, RFO / Flank organ Weight, RFO / Flank organ Development, RFO (median score): treated right flank organ; for Flank organ Diameter, RFO / Flank organ Weight, RFO: mean; for Flank organ Development, RFO (median score): scale 0 to 4 (0 barely visible, 4 as in mature male); for Flank Organ (Mean Score) Area / Flank Organ (Mean Score) Elevation / Flank Organ (Mean Score) Hair Growth / Flank Organ (Mean Score) Hair Pigmentation / Flank Organ (Mean Score) Skin Pigmentation: RFO, scale 0 to 4
Excerpt: Each flank organ of mature male Syrian golden hamsters having a mean initial body weight of 105 g. was medicated topically with the compound of Formula I dissolved in ethanol (5 microliters) for twenty-one days. Flank organ hair was clipped three times per week to facilitate application. On the day following the last medication the hamsters were killed with an overdose of sodium pentobarbital. The flank organ parameters and the weights of seminal vesicles, adrenals and thymus glands were determined. Flank organ diameter was measured parallel to the breadth of the hamster with vernier calipers. Wet weights were obtained on flank organs excised around the periphery of the pigmented area. The topical activity of the compound of Formula I was also compared with that of 17β-hydroxy-17α-propylandrost-4-en-3-one, an antiandrogen, and hydrocortisone. In this experiment the right flank organ was treated with the test compound while vehicle-treated left flank organ served as control. […] In addition, the individual characteristics of the flank organ, elevation (thickness relative to adjacent skin), area, hair pigment, skin pigment and hair growth were all scored separately on a scale of 0 to 4.

[2] = biological target: T1, hamster flank organ cytosol receptor (Mesocricetus auratus, UniProt A0A1U7QL32); experiment: Binding competition with 3H-dihydrotestosterone in hamster flank organ cytosol in vitro (Table VI); parameters: species or system Syrian golden hamsters; settings: 3H-DHT 2 nM, two hours, no antagonist 13.96
T1 construct: The homogenate was centrifuged (120,000×g for 45 min.) and the cytosol was frozen and stored at -70° C; from tissue; host or cells: flank organ cytosol of castrated male Syrian golden hamsters
T1 sequence (A0A1U7QL32 1-900): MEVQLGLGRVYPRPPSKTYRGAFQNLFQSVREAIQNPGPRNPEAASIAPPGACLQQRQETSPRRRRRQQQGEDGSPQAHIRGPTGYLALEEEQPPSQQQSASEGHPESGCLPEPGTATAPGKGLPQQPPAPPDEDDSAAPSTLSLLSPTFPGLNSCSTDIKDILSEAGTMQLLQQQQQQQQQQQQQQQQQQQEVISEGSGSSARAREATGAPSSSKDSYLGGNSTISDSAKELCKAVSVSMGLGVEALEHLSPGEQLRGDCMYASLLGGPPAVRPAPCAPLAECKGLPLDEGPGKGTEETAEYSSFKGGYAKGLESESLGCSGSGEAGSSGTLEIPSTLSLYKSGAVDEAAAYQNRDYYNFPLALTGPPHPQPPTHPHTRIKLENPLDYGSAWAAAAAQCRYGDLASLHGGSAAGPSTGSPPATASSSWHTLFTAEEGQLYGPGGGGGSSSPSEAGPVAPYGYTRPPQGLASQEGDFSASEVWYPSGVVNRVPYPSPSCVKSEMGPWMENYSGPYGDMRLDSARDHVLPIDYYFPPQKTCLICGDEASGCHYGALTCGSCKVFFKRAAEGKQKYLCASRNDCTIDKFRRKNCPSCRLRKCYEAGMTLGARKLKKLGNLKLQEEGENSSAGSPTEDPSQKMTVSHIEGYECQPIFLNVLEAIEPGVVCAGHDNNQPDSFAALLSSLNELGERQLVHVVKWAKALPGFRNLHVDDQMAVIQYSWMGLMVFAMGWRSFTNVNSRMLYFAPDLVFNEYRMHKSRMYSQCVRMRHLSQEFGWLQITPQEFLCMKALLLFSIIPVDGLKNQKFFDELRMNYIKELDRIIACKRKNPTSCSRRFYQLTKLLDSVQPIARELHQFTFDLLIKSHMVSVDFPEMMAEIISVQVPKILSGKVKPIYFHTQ
Protocol: The flank organs of twelve mature male Syrian golden hamsters each weighing from 120 to 140 g. and having been castrated 16-18 hours earlier were excised, dissected under the microscope to remove the dermis and the muscle layers and homogenized in buffer (1.5 volumes of 50 mM Tris, 0.5 mM mercaptoethanol and 0.1 mM ethylenediamine tetracetate, pH 7.4). The homogenate was centrifuged (120,000×g for 45 min.) and the cytosol was frozen and stored at -70° C. Six of the cytosol samples were thawed at room temperature, pooled and used for evaluation of in vitro binding.

[3] = test system: hair growth on backs of male adrenalectomized Sprague-Dawley rats; experiment: Reduction in hair growth in male adrenalectomized rats, topical (Table VII); assay type: in vivo; settings: 0.1% solution topical, n=12
Excerpt: Hair was clipped from the backs of male Sprague-Dawley rats, having a mean body weight of 300 g., three weeks after adrenalectomy. The clipped area (4 cm.×4 cm.) was medicated with approximately 500 microliters of 0.1% solution of the compound of Formula I, or hydrocortisone or 500 microliters of ethanol alone for a two-week pretreatment period. The clipped area was then depilated and the medication with either solution or ethanol alone was continued for 4 weeks. The density of hair growth was scored visually at weekly intervals and at termination of the experiment on a scale of 0 to 4 (0, no hair growth; 4, complete hair regrowth). Skinfold thickness was also measured using a micrometer at the end of the experiment, which was conducted blind.

[4] = test system: castrated immature male Syrian golden hamsters; experiment: Systemic antiandrogenic and glucocorticoid activity, subcutaneous, with testosterone propionate (Table IV); assay type: in vivo; settings: testosterone propionate 0.4 mg/kg/day alone for 14 days (androgen-treated control); mean, n=8
Protocol: A solution of the compound of Formula I in cottonseed oil was administered subcutaneously at 1 ml./kg. to castrated immature male Syrian golden hamsters having a mean initial body weight of 79 g. for 14 consecutive days concurrently with testosterone propionate. On the day following the last medication the hamsters were killed, the flank organ parameters were determined and the weights of seminal vesicles, adrenals and thymus glands were obtained.

[5] = after depilation, median score, scale 0 to 4

Row | Structure (SMILES) | Flank organ Diameter, RFO ([1]; 5 μg/RFO for 21 days) | Flank organ Weight, RFO ([1]; 5 μg/RFO for 21 days) | Flank organ Development, RFO (median score) ([1]; 5 μg/RFO for 21 days) | Flank organ Diameter, RFO ([1]; 50 μg/RFO for 21 days) | Flank organ Weight, RFO ([1]; 50 μg/RFO for 21 days) | Flank organ Development, RFO (median score) ([1]; 50 μg/RFO for 21 days) | Flank Organ (Mean Score) Area ([1]; 5 μg/flank organ for 21 days) | Flank Organ (Mean Score) Elevation ([1]; 5 μg/flank organ for 21 days) | Flank Organ (Mean Score) Hair Growth ([1]; 5 μg/flank organ for 21 days) | Flank Organ (Mean Score) Hair Pigmentation ([1]; 5 μg/flank organ for 21 days) | Flank Organ (Mean Score) Skin Pigmentation ([1]; 5 μg/flank organ for 21 days) | Flank Organ (Mean Score) Area ([1]; 50 μg/flank organ for 21 days) | Flank Organ (Mean Score) Elevation ([1]; 50 μg/flank organ for 21 days) | Flank Organ (Mean Score) Hair Growth ([1]; 50 μg/flank organ for 21 days) | Flank Organ (Mean Score) Hair Pigmentation ([1]; 50 μg/flank organ for 21 days) | Flank Organ (Mean Score) Skin Pigmentation ([1]; 50 μg/flank organ for 21 days) | other results
1 | CCC[C@]1(O)CC[C@H]2[C@@H]3CCC4=CC(=O)CC[C@]4(C)[C@H]3CC[C@@]21C [17β-Hydroxy-17α-propylandrost-4-en-3-one, 17β-hydroxy-17α-propylandrost-4-en-3-one] | 4.9 mm | 33.8 mg | 3 | 3.9 mm | 21.4 mg | 2 | 3.1 | 2.6 | 3.1 | 3.3 | 4.0 | 1.6 | 1.4 | 2.3 | 2.6 | 2.7 | 
2 | C[C@]12CCC(=O)C[C@@H]1CC[C@@H]1[C@@H]2CC[C@]2(C)[C@@H](O)CC[C@@H]12 [DHT, Dihydrotestosterone, reference compound] |  |  |  |  |  |  |  |  |  |  |  |  |  |  |  |  | % Bound (Mean ± SE) of 3H-dihydrotestosterone ([2]; unlabelled antagonist 20 nM, molar ratio 10): 7.95 ± .41%; % Bound (Mean ± SE) of 3H-dihydrotestosterone ([2]; unlabelled antagonist 200 nM, molar ratio 100): 4.22 ± .001%; % Bound (Mean ± SE) of 3H-dihydrotestosterone ([2]; unlabelled antagonist 2000 nM, molar ratio 1000): 4.00 ± .22%
3 | C[C@]12CCC(=O)C=C1CC[C@@H]1[C@@H]2[C@@H](O)C[C@@]2(C)[C@H]1CC[C@]2(O)C(=O)CO [Hydrocortisone, hydrocortisone] | 5.7 mm | 38.5 mg | 4 | 5.7 mm | 39.1 mg | 4 | 3.7 | 3.7 | 1.9 | 3.7 | 3.9 | 4.0 | 3.5 | 1.3 | 3.0 | 3.4 | Hair Growth Score, Treatment week 1 [3, 5]: 0; Hair Growth Score, Treatment week 2 [3, 5]: 0; Hair Growth Score, Treatment week 3 [3, 5]: 1; Hair Growth Score, Treatment week 4 [3, 5]: 2; Skinfold Thickness, Treatment week 4 ([3]; mean, vehicle 2.51): 2.11 mm; Hair Growth Score, Pretreatment week 1 ([3]; median score, scale 0 to 4 (0 no hair growth, 4 complete regrowth)): 2; Hair Growth Score, Pretreatment week 2 ([3]; median score, scale 0 to 4): 3
4 | CCC(=O)O[C@H]1CC[C@H]2[C@@H]3CCC4=CC(=O)CC[C@]4(C)[C@H]3CC[C@]12C [Testosterone Propionate, testosterone propionate, reference compound] |  |  |  |  |  |  |  |  |  |  |  |  |  |  |  |  | Final Body Weight [4]: 106; Flank Organ Diameter [4]: 4.3 mm; Flank Organ Wet Weight [4]: 22.8 mg; Organ Weights: Adrenals [4]: 18.2 mg; Organ Weights: Seminal Vesicles [4]: 157 mg; Organ Weights: Thymus [4]: 58 mg
